# US20220315554A1, “COMPOUNDS COMPRISING A […] LIGAND AND USE THEREOF” (priority 2019, published 2022)
# Key:
# Test in all cases: biochemical
# proteases [1] = target: T1, proteases (Homo sapiens, UniProt O75604); conditions: Ubiquitin carboxy-terminal hydrolase 2; reference at 1 μM
# T1 construct: BPS Biosciences (contract assay)
# proteases [2] = target: T2, proteases (Homo sapiens, UniProt P09936); conditions: Ubiquitin carboxy-terminal hydrolase L1; reference at 100 nM
# T2 construct: BPS Biosciences (contract assay)
# T2 sequence (P09936 whole entry): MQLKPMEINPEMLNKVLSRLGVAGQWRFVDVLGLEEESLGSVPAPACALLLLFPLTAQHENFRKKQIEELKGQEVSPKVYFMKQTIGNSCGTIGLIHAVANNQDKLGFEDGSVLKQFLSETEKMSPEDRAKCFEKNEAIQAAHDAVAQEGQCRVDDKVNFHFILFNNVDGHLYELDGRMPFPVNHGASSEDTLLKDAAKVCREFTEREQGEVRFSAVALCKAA
# proteases [3] = target: T3, proteases (Homo sapiens, UniProt Q8N6M0); conditions: Deubiquitinase OTUD6B; reference at 1 μM
# T3 construct: BPS Biosciences (contract assay)
# T3 sequence (Q8N6M0 whole entry): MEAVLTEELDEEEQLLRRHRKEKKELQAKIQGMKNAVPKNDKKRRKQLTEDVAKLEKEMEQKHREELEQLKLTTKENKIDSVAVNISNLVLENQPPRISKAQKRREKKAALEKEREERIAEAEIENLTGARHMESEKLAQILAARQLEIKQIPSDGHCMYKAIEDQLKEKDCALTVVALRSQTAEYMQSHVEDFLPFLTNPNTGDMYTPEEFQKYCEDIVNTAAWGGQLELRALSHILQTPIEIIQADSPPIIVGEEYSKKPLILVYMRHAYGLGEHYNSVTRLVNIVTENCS
# proteases [4] = target: T4, proteases (Homo sapiens, UniProt Q14694); conditions: Ubiquitin carboxy-terminal hydrolase 10; reference at 1 μM
# T4 construct: BPS Biosciences (contract assay)
# proteases [5] = target: T5, proteases (Homo sapiens, UniProt P15374); conditions: Ubiquitin carboxy-terminal hydrolase L3; reference at 10 nM
# T5 construct: BPS Biosciences (contract assay)
# T5 sequence (P15374 whole entry): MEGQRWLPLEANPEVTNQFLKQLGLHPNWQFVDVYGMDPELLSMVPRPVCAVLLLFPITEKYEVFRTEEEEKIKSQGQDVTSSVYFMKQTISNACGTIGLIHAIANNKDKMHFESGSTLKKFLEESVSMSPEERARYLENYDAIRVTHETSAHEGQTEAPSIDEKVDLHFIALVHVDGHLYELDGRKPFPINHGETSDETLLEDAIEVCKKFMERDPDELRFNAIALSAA
# proteases [6] = target: T6, proteases (Homo sapiens, UniProt Q93009); conditions: Ubiquitin carboxy-terminal hydrolase 7; reference at 1 μM
# T6 construct: BPS Biosciences (contract assay)
# T6 sequence (Q93009 whole entry): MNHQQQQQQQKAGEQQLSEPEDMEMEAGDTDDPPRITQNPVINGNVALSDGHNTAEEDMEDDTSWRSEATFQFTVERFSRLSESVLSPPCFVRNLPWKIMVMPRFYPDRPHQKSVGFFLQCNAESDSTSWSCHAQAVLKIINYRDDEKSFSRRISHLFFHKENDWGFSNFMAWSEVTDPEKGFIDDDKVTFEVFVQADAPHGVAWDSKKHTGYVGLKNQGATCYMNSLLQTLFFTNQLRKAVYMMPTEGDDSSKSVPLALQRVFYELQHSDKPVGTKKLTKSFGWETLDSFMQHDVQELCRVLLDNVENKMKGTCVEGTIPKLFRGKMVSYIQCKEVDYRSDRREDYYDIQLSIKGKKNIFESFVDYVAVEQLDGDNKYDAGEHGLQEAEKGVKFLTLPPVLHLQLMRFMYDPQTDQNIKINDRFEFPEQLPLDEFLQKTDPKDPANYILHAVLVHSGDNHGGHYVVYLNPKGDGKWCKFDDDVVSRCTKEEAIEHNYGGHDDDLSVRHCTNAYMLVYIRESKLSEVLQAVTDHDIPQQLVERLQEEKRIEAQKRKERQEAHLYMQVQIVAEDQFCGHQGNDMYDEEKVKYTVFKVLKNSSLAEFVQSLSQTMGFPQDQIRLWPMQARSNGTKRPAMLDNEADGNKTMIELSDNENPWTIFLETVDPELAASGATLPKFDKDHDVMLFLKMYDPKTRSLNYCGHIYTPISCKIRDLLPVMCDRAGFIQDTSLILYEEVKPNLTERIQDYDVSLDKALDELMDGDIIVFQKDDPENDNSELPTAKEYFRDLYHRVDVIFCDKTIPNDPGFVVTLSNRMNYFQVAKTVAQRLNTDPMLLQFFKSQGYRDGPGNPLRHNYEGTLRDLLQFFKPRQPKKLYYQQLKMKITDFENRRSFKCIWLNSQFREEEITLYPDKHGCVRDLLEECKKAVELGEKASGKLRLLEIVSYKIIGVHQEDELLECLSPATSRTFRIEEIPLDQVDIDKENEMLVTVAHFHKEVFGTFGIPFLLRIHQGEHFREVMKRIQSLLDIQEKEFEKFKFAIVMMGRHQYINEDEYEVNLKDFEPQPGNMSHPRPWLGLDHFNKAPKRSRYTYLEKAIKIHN
# proteases [7] = target: T7, proteases (Homo sapiens, UniProt P45974); conditions: Ubiquitin carboxy-terminal hydrolase 5; reference at 1 μM
# T7 construct: BPS Biosciences (contract assay)
# proteases [8] = target: T8, proteases (Homo sapiens, UniProt P40818); conditions: Ubiquitin carboxy-terminal hydrolase 8; reference at 1 μM
# T8 construct: BPS Biosciences (contract assay)
# proteases [9] = target: T9, proteases (Homo sapiens, UniProt P54578); conditions: Ubiquitin carboxy-terminal hydrolase 14; reference at 100 nM
# T9 construct: BPS Biosciences (contract assay)
# T9 sequence (P54578 whole entry): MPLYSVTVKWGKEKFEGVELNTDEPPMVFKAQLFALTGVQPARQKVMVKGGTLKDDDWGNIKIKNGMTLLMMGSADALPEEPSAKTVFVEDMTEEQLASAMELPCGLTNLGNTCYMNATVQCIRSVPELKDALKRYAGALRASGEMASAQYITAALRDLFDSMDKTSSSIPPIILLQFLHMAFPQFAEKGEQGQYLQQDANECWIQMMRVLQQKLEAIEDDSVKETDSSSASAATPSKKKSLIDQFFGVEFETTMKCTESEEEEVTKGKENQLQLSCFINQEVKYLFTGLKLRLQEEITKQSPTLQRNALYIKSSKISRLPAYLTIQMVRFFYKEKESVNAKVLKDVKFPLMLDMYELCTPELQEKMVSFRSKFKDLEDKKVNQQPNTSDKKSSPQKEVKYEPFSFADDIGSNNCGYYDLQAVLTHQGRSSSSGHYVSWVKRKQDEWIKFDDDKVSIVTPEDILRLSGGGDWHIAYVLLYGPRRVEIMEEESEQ
# proteases [10] = target: T10, proteases (Homo sapiens, UniProt P54252); conditions: Ataxin3; reference at 10 μM
# T10 construct: BPS Biosciences (contract assay)
# T10 sequence (P54252 whole entry): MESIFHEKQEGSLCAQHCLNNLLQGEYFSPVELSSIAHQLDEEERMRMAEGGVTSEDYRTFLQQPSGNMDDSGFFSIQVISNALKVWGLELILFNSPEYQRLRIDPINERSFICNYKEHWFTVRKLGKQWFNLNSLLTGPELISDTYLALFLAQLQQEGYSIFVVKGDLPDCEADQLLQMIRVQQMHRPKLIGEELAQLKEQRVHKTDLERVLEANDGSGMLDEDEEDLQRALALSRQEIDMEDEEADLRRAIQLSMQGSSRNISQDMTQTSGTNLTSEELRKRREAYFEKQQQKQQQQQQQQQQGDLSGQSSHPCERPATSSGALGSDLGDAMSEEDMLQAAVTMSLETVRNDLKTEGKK
# proteases [11] = target: T11, proteases (Homo sapiens, UniProt Q12884); conditions: FAP; reference at 100 nM
# T11 construct: BPS Biosciences (contract assay)
# T11 sequence (Q12884 whole entry): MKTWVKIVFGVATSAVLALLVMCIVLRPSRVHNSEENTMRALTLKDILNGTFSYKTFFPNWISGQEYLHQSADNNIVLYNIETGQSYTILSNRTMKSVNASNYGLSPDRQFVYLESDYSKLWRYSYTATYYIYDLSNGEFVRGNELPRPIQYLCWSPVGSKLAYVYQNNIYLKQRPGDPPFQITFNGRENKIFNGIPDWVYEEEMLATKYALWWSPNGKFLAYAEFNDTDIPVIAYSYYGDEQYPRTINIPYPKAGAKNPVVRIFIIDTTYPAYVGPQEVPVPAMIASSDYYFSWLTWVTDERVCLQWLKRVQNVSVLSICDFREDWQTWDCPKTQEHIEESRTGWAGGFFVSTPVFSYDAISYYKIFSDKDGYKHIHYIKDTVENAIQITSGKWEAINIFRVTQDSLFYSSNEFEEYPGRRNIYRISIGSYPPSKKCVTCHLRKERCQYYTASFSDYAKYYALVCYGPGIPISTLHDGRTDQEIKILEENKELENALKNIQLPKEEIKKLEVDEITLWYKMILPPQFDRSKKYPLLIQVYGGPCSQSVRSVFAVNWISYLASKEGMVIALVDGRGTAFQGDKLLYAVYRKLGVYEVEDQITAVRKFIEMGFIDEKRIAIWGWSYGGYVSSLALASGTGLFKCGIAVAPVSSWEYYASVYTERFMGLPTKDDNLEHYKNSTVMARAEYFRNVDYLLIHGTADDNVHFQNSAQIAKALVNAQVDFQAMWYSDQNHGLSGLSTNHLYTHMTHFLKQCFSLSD
# proteases [12] = target: proteases (Homo sapiens, UniProt Q9UHL4); conditions: DPP7; reference at 200 μM
# proteases [13] = target: T12, proteases (Homo sapiens, UniProt Q6V1X1); conditions: DPP8; reference at 200 μM
# T12 construct: BPS Biosciences (contract assay)
# T12 sequence (Q6V1X1 whole entry): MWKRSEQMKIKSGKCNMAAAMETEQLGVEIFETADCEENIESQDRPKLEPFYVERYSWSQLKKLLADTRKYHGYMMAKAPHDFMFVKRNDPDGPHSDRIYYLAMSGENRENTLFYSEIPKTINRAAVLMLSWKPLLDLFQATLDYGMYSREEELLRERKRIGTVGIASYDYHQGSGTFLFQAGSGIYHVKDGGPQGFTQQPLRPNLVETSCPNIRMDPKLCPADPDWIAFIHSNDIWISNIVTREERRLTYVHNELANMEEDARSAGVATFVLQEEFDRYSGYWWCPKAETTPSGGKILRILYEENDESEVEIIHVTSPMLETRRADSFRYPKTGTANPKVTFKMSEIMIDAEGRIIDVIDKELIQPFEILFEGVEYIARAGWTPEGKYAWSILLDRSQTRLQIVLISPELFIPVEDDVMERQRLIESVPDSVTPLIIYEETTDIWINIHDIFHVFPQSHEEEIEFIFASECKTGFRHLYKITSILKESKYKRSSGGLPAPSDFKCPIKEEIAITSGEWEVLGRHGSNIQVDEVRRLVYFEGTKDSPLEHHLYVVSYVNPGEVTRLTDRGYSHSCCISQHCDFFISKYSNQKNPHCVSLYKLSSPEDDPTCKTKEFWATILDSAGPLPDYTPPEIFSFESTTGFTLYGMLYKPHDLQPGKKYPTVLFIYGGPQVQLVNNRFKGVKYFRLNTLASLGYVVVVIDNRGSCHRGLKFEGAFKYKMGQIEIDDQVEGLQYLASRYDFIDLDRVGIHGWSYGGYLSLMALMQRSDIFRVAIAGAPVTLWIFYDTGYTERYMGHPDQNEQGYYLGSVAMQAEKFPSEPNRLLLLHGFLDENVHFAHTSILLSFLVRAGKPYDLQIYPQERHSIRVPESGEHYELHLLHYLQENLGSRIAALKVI
# T1 sequence (O75604 whole entry): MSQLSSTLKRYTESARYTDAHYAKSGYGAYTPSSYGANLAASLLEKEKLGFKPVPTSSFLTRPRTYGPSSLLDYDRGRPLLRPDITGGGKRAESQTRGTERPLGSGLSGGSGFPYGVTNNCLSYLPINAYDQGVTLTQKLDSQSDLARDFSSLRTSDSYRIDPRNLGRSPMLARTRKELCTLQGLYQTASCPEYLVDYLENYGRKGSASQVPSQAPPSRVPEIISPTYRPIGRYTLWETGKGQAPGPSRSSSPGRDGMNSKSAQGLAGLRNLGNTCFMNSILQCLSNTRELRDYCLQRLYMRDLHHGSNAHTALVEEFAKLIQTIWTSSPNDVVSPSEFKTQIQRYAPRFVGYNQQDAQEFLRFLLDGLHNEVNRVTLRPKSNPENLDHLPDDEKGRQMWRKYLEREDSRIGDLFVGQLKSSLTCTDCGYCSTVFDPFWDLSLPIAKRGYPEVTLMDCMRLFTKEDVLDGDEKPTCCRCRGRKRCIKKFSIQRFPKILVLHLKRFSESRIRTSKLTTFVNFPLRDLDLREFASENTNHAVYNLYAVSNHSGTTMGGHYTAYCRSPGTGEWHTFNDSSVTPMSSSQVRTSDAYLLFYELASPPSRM
compound,measurement,setting,value
Ub-Aldehyde,Percentage inhibition (%) Reference,proteases [1],91%
same,Percentage inhibition (%) Reference,proteases [2],92%
same,Percentage inhibition (%) Reference,proteases [3],97%
same,Percentage inhibition (%) Reference,proteases [4],82%
same,Percentage inhibition (%) Reference,proteases [5],95%
same,Percentage inhibition (%) Reference,proteases [6],95%
same,Percentage inhibition (%) Reference,proteases [7],84%
same,Percentage inhibition (%) Reference,proteases [8],73%
same,Percentage inhibition (%) Reference,proteases [9],96%
same,Percentage inhibition (%) Reference,proteases [10],77%
N#C[C@@H]1CC(F)(F)CN1C(=O)CNC(=O)c1ccnc2ccccc12 [SP-13786],Percentage inhibition (%) Reference,proteases [11],100%
N#Cc1ccc(NCCNCC(=O)N2N=CCC2C#N)nc1 (stereo not shown) [KR62436],Percentage inhibition (%) Reference,proteases [12],83%
same,Percentage inhibition (%) Reference,proteases [13],96%
